Measurements as given in patent publication US5126366A, “Aminophenoxyalkyl derivatives of benzodioxan” (American Home Products Corporation, priority 1991, dated 1992).
Read-outs that look alike come from different tables or passages of the source. Each block holds one molecule with its values, some of them ahead of it.

Key:
5-HT1A receptor = conditions: cited from earlier work
synthesis of dopamine = assay: Inhibition of dopa accumulation in GBL/NSD-1015-treated rats (dopamine autoreceptor agonism; Walters and Roth); assay type: in vivo, rats (male, Sprague-Dawley); conditions: sc, rat
Description: The effect of the compounds of the invention on the synthesis of dopamine was established by the method of Walters and Roth, Naunyn-Schmiedeberg's Arch. […] Following perchloric acid extraction of the tissue, the extracts were placed over alumina columns to collect and concentrate dopa and other catechols. This eluate was then subjected to HPLC analysis using electrochemical detection to quantify the levels of dopa present. Dopamine autoreceptor agonists, under the conditions used above, inhibit dopa accumulation.

mouse locomotor activity = assay: Reduction of mouse locomotor activity (Martin and Bendensky); assay type: in vivo, mice (male, CF-1); conditions: horizontal activity counts 10 to 20 minutes after dosing; for ED50: ip, read-out: Hypolocomotion (ED50 mg/kg, ip)
dopamine D2 receptor = biological target: T1, dopamine D2 receptor (Rattus norvegicus, UniProt P61169); assay: Dopamine D2 receptor affinity, 3H-spiroperidol binding in homogenized limbic brain tissue
T1 construct: homogenized limbic brain tissue is incubated with ^3 H-spiroperidol; from tissue; host or cells: homogenized limbic brain tissue

[1] = biological target: T2, serotonin 5-HT1A receptor (Rattus norvegicus, UniProt P19327); assay: Serotonin 5-HT1A receptor affinity, displacement of [3H]8-OHDPAT; assay type: binding; conditions: for inhibition at 0.1 µM: read-out: Receptor Affinities 5-HT1A (% @ ( ) μM)
T2 construct: following the procedure of Hall et al., J. Neurochem; 44, 1685 (1985); from tissue
T2 sequence (P19327 1-422): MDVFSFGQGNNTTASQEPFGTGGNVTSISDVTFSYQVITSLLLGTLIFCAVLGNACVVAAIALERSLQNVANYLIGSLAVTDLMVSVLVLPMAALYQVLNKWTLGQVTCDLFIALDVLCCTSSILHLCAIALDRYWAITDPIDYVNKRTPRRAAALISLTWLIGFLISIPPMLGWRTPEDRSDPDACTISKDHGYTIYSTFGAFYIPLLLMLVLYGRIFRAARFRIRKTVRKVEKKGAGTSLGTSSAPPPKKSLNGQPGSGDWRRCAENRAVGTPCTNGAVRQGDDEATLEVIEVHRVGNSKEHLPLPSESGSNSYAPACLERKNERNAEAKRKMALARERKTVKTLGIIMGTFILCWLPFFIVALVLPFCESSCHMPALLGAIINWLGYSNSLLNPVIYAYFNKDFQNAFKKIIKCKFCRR
Description: Affinity for the serotonin 5-HT1A receptor was established by testing the claimed compound's ability to displace [^3 H]8-OHDPAT (dipropylaminotetralin) from the 5-HT1A serotonin receptor following the procedure of Hall et al., J. Neurochem. 44, 1685 (1985). […] The anxiolytic activity of buspirone is believed to be, at least partially, due to its 5-HT1A receptor affinity (Vander Maclen et al., Eur. J. Pharmacol. 1986, 129 (1-2) 133-[…]).

[2] = limbic (L) brain tissue, read-out: Dopa Accumulation (% inhib. @ 10 mg/kg, sc), limbic (L)
[3] = striatal (S) brain tissue, read-out: Dopa Accumulation (% inhib. @ 10 mg/kg, sc), striatal (S)

T1 sequence (P61169 whole entry): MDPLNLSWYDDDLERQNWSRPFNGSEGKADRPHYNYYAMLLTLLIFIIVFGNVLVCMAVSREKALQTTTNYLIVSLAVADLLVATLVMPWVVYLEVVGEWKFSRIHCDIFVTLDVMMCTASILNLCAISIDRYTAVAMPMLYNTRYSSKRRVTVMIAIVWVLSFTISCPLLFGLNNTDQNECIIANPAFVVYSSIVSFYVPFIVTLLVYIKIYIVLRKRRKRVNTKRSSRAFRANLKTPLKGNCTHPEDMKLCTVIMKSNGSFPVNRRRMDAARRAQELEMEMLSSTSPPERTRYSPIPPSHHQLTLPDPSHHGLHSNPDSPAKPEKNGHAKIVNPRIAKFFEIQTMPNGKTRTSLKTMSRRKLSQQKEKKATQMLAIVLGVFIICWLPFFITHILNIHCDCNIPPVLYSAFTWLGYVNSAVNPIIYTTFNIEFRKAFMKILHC

SMILES: O=C1CC2(CCCC2)CC(=O)N1CCCCNCC1COc2ccccc2O1 (single isomer, unassigned; (-)) [(-)-MDL 72832]
binding at the 5-HT1A receptor site relative to the dextrorotary isomer (5-HT1A receptor; (-)-isomer versus dextrorotary isomer, Fozard et al.): 32 times

IC50 (dopamine D2 receptor; read-out: Receptor Affinities D2 IC50): 525 nM | IC50 ([1]; read-out: Receptor Affinities 5-HT1A IC50): 4 nM
SMILES: Nc1cccc(OCCCNCC2COc3ccccc3O2)c1 (centres unmarked) [Example 1, N-[3-(3-Aminophenoxy)propyl]-2,3-dihydro-1,4-benzodioxin-2-methanamine]
inhibition at 10 mg/kg (synthesis of dopamine; [2]): 33% | inhibition at 10 mg/kg (synthesis of dopamine; [3]): 46% | ED50 (mouse locomotor activity): 0.38 mg/kg

SMILES: COc1cccc2c1OCC(CNCCCOc1cccc(N)c1)O2 (centres unmarked) [Example 2, N-[3-(3-Aminophenoxy)propyl]-2,3-dihydro-5-methoxy-1,4-benzodioxin-2-methanamine]
inhibition at 10 mg/kg (synthesis of dopamine; [2]): -22%

SMILES: Nc1cccc(OCCCNCC2COc3ccc(O)cc3O2)c1 (centres unmarked) [Example 3, N-[3-(3-Aminophenoxy)propyl]-2,3-dihydro-7-hydroxy-1,4-benzodioxin-2-methanamine]
inhibition at 10 mg/kg (synthesis of dopamine; [2]): 64% | inhibition at 10 mg/kg (synthesis of dopamine; [3]): 66% | ED50 (mouse locomotor activity; Mus musculus): 0.16 mg/kg | Hypolocomotion (ED50 mg/kg, ip) (mouse locomotor activity): 0.15 mg/kg

SMILES: Nc1cccc(OCCCNC[C@H]2COc3ccc(O)cc3O2)c1 [Example 4, (S)-N-[3-(3-Aminophenoxy)propyl]-2,3-dihydro-7-hydroxy-1,4-benzodioxin-2-methanamine]
inhibition at 10 mg/kg (synthesis of dopamine; [2]): 70% | inhibition at 10 mg/kg (synthesis of dopamine; [3]): 71% | ED50 (mouse locomotor activity; Mus musculus): 0.08 mg/kg

SMILES: Nc1cccc(OCCCNCC2COc3cc(O)ccc3O2)c1 (centres unmarked) [Example 5, N-[3-(3-Aminophenoxy)propyl]-2,3-dihydro-6-hydroxy-1,4-benzodioxin-2-methanamine]
inhibition at 10 mg/kg (synthesis of dopamine; [2]): 31% | inhibition at 10 mg/kg (synthesis of dopamine; [3]): 30%

SMILES: Nc1cccc(OCCCNCC2COc3c(O)cccc3O2)c1 (centres unmarked) [Example 6, N-[3-(3-Aminophenoxy)propyl]-2,3-dihydro-5-hydroxy-1,4-benzodioxin-2-methanamine]
inhibition at 10 mg/kg (synthesis of dopamine; [2]): 23% | inhibition at 10 mg/kg (synthesis of dopamine; [3]): 30%

SMILES: Nc1cccc(OCCCNC[C@@H]2COc3ccc(O)cc3O2)c1 [Example 7, (R)-N-[3-(3-Aminophenoxy)propyl]-2,3-dihydro-7-hydroxy-1,4-benzodioxin-2-methanamine]
inhibition at 10 mg/kg (synthesis of dopamine; [2]): 27% | inhibition at 10 mg/kg (synthesis of dopamine; [3]): 19% | ED50 (mouse locomotor activity; Mus musculus): 1.34 mg/kg

inhibition at 1 µM (dopamine D2 receptor; % at 1.0 μM, read-out: Receptor Affinities D2 (% @ ( ) μM)): 48% | inhibition at 0.1 µM [1]: 95%
SMILES: COc1ccc2c(c1)OC(CNCCCOc1cccc(N)c1)CO2 (centres unmarked) [Example 8, N-[3-(3-Aminophenoxy)propyl]-2,3-dihydro-7-methoxy-1,4-benzodioxin-2-methanamine]
inhibition at 10 mg/kg (synthesis of dopamine; [2]): 42.9%

inhibition at 0.1 µM [1]: 100%
SMILES: Nc1cccc(OCCCNC[C@H]2COc3ccccc3O2)c1 [Example 9, (S)-N-[3-(3-Aminophenoxy)propyl]-2,3-dihydro-1,4-benzodioxin-2-methanamine]
ED50 (mouse locomotor activity): 0.19 mg/kg

inhibition at 0.1 µM [1]: 54%
SMILES: Nc1cccc(OCCCNCC2COc3cc4c(cc3O2)OCO4)c1 (centres unmarked) [Example 10, N-[3-(3-Aminophenoxy)propyl]-2,3-dihydro-6,7-methylenedioxy-1,4-benzodioxin-2-methanamine]
inhibition at 10 mg/kg (synthesis of dopamine; [2]): 70.9% | ED50 (mouse locomotor activity): 1.8 mg/kg

SMILES: COc1cccc2c1OC(CNCCCOc1cccc(N)c1)CO2 (centres unmarked) [Example 11, N-[3-(3-Aminophenoxy)propyl]-2,3-dihydro-8-methoxy-1,4-benzodioxin-2-methanamine]
inhibition at 10 mg/kg (synthesis of dopamine; [2]): 13%

SMILES: Nc1cccc(OCCCNCC2COc3cccc(O)c3O2)c1 (centres unmarked) [Example 12, N-[3-(3-Aminophenoxy)propyl]-2,3-dihydro-8-hydroxy-1,4-benzodioxin-2-methanamine]
inhibition at 10 mg/kg (synthesis of dopamine; [2]): 17.4%

SMILES: Nc1cccc(OCCCNCC2COc3ccc(Cl)cc3O2)c1 (centres unmarked) [Example 13, N-[3-(3-Aminophenoxy)propyl]-2,3-dihydro-7-chloro-1,4-benzodioxin-2-methanamine]
inhibition at 10 mg/kg (synthesis of dopamine; [2]): 9.1%

SMILES: COc1cc2c(cc1OC)OC(CNCCCOc1cccc(N)c1)CO2 (centres unmarked) [Example 14, N-[3-(3-Aminophenoxy)propyl]-2,3-dihydro-6,7-dimethoxy-1,4-benzodioxin-2-methanamine]
inhibition at 10 mg/kg (synthesis of dopamine; [2]): 53.7%

SMILES: COc1ccc2c(c1OC)OCC(CNCCCOc1cccc(N)c1)O2 (centres unmarked) [Example 15, N-[3-(3-Aminophenoxy)propyl]-2,3-dihydro-5,6-dimethoxy-1,4-benzodioxin-2-methanamine]
inhibition at 10 mg/kg (synthesis of dopamine; [2]): 7.6%

inhibition at 0.1 µM [1]: 87%
SMILES: Nc1cccc(OCCCNCC2COc3ccc(F)cc3O2)c1 (centres unmarked) [Example 16, N-[3-(3-Aminophenoxy)propyl]-2,3-dihydro-7-fluoro-1,4-benzodioxin-2-methanamine]
inhibition at 10 mg/kg (synthesis of dopamine; [2]): 59.9% | ED50 (mouse locomotor activity): 1.4 mg/kg

SMILES: COc1ccc2c(c1)O[C@@H](CNCCCOc1cccc(N)c1)CO2 [Example 17, (S)-N-[3-(3-Aminophenoxy)propyl]-2,3-dihydro-7-methoxy-1,4-benzodioxin-2-methanamine]
inhibition at 10 mg/kg (synthesis of dopamine; [2]): 28%

SMILES: Cc1c(O)ccc2c1OC(CNCCCOc1cccc(N)c1)CO2 (centres unmarked) [Example 19, N-[3-(3-Aminophenoxy)propyl]-2,3-dihydro-7-hydroxy-8-methyl-1,4-benzodioxin-2-methanamine]
inhibition at 10 mg/kg (synthesis of dopamine; [2]): 21%

SMILES: O=C1CC2(CCCC2)CC(=O)N1CCCCNCC1COc2ccccc2O1 (centres unmarked) [MDL 72832, 8-[4-(1,4-benzodioxan-2-ylmethylamino)butyl]-8-azaspiro[4.5]decane-7,9-dione]
5-HT1A receptor ligand character (5-HT1A receptor; in words, Fozard et al.): selective and stereospecific

SMILES: O=C1CC2(CCCC2)CC(=O)N1CCCCN1CCN(c2ncccn2)CC1 [buspirone]
affinity for the 5-HT1A serotonin receptor subtype (5-HT1A receptor; in words, standard for anxiolytic activity): potent affinity
